From US20250352520A1, “USE OF DEXPRAMIPEXOLE FOR THE TREATMENT OF EOSINOPHILIC COPD” (Areteia Therapeutics, Inc., priority 2024, published 2025)
Where two headings read alike, the source gives them in different places.

How the values were obtained:
blood eosinophils = tested on: blood eosinophils
Method: This was a Phase II, open-label, multicenter study in approximately 30 participants aged≥40 to ≤80 years of age with a diagnosis of COPD and a blood eosinophil count of ≥0.30×10^9/L at screening. Some patients with blood eosinophil counts of 0.25-0.299×10^9/L at screening also were included. Participants were treated with 150 mg dexpramipexole BID. […] Informed consent was obtained from participants before the initiation of any study-specific procedures. This study was conducted at approximately 30 sites in the US.
There were three phases to the study: • Screening Phase (Screening Visit through Baseline) Participants underwent screening to assess whether they satisfy the eligibility criteria. […] After the collection of all Baseline assessments, participants began investigational treatment (dexpramipexole 150 mg), BID for 16 weeks. The Week 16 Visit was the Primary Outcome Visit for the study. • Follow-up Phase (Conclusion of Week 16 assessments through Week 20) During this phase, participants had one final phone visit to collect final safety assessments following cessation of investigational product.
The primary endpoint of this study was geometric mean change in the blood AEC from Baseline to Week 16.
Blood eosinophil counts were obtained at every onsite study visit. Samples were collected between 6 AM and 12 noon to minimize diurnal variation.

[1] = for COPD Assessment - Total Score, CFB (Change from baseline), Max / COPD Assessment - Total Score, CFB (Change from baseline), Mean ± SD / COPD Assessment - Total Score, CFB (Change from baseline), Median / COPD Assessment - Total Score, CFB (Change from baseline), Min / COPD Assessment - Total Score, CFB (Change from baseline), Q1 / COPD Assessment - Total Score, CFB (Change from baseline), Q3 / COPD Assessment - Total Score, Observed, Max / COPD Assessment - Total Score, Observed, Mean ± SD / COPD Assessment - Total Score, Observed, Median / COPD Assessment - Total Score, Observed, Min / COPD Assessment - Total Score, Observed, Q1 / COPD Assessment - Total Score, Observed, Q3: Week 16, 150 mg BID
Text: The CAT is a participant-completed instrument that can quantify the impact of COPD on the participant's health. It complements existing approaches to assessing COPD, such as FEV1 measurement.
The CAT has a scoring range of 0-40 (0 to 5 on 8 questions) with higher numbers indicating more severe symptoms.

[2] = <50% AEC reduction at Week 16 (N = 4)
[3] = >=50% AEC reduction at Week 16 (N = 3)

For `CCCN[C@@H]1CCc2nc(N)sc2C1` [Dexpramipexole, (6R)-2-amino-4,5,6,7-tetrahydro-6-(propylamino)benzothiazole], the “AEC Ratio to baseline, Q1” value (blood eosinophils; Week 4) was 0.70, the “AEC Ratio to baseline, Q3” value (blood eosinophils; Week 4) was 1.23 and the “AEC Observed, Geometric Mean ± GSE” value (blood eosinophils; Week 8) was 118.0 ± 1.95 cells/uL. The “AEC Observed, Max” value (blood eosinophils; Week 8) was 396 cells/uL, the “AEC Observed, Median” value (blood eosinophils; Week 8) was 212.4 cells/uL and the “AEC Observed, Min” value (blood eosinophils; Week 8) was 5 cells/uL. The “AEC Observed, Q1” value (blood eosinophils; Week 8) was 90 cells/uL, the “AEC Observed, Q3” value (blood eosinophils; Week 8) was 336 cells/uL and the “AEC Ratio to baseline, Geometric Mean ± GSE” value (blood eosinophils; Week 8) was 0.323 ± 1.9860. The “AEC Ratio to baseline, Max” value (blood eosinophils; Week 8) was 1.08, the “AEC Ratio to baseline, Median” value (blood eosinophils; Week 8) was 0.658 and the “AEC Ratio to baseline, Min” value (blood eosinophils; Week 8) was 0.01. The “AEC Ratio to baseline, Q1” value (blood eosinophils; Week 8) was 0.19, the “AEC Ratio to baseline, Q3” value (blood eosinophils; Week 8) was 0.96 and the “AEC Observed, Geometric Mean ± GSE” value (blood eosinophils; Week 12) was 64.9 ± 2.30 cells/uL. The “AEC Observed, Max” value (blood eosinophils; Week 12) was 589 cells/uL, the “AEC Observed, Median” value (blood eosinophils; Week 12) was 224.0 cells/uL and the “AEC Observed, Min” value (blood eosinophils; Week 12) was 5 cells/uL. The “AEC Observed, Q1” value (blood eosinophils; Week 12) was 6 cells/uL, the “AEC Observed, Q3” value (blood eosinophils; Week 12) was 589 cells/uL and the “AEC Ratio to baseline, Geometric Mean ± GSE” value (blood eosinophils; Week 12) was 0.167 ± 2.2497. The “AEC Ratio to baseline, Max” value (blood eosinophils; Week 12) was 1.90, the “AEC Ratio to baseline, Median” value (blood eosinophils; Week 12) was 0.538 and the “AEC Ratio to baseline, Min” value (blood eosinophils; Week 12) was 0.01. For the same compound, the “AEC Ratio to baseline, Q1” value (blood eosinophils; Week 12) was 0.01, the “AEC Ratio to baseline, Q3” value (blood eosinophils; Week 12) was 1.07 and the “AEC Observed, Geometric Mean ± GSE” value (blood eosinophils; Week 16) was 82.8 ± 2.06 cells/uL. For the same compound, the “AEC Observed, Max” value (blood eosinophils; Week 16) was 384 cells/uL, the “AEC Observed, Median” value (blood eosinophils; Week 16) was 260.0 cells/uL and the “AEC Observed, Min” value (blood eosinophils; Week 16) was 5 cells/uL. The “AEC Observed, Q1” value (blood eosinophils; Week 16) was 6 cells/uL, the “AEC Observed, Q3” value (blood eosinophils; Week 16) was 342 cells/uL and the “AEC Ratio to baseline, Geometric Mean ± GSE” value (blood eosinophils; Week 16) was 0.213 ± 2.0849. For the same compound, the “AEC Ratio to baseline, Max” value (blood eosinophils; Week 16) was 1.24, the “AEC Ratio to baseline, Median” value (blood eosinophils; Week 16) was 0.620 and the “AEC Ratio to baseline, Min” value (blood eosinophils; Week 16) was 0.01. The “AEC Ratio to baseline, Q1” value (blood eosinophils; Week 16) was 0.01, the “AEC Ratio to baseline, Q3” value (blood eosinophils; Week 16) was 0.64 and the “AEC, average, percent of the baseline value” (blood eosinophils; Week 16) was 21.3 % of the baseline value. The “subjects classified as AECR≥0.5 (reduction in AEC of ≥50% from baseline at week 16)” value (blood eosinophils; Week 16) was 3 of the 7 subjects, the “CAT total score, decrease compared to baseline” value ([1]; AECR≥0.5 patients, week 16) was 8.7 points and the “COPD Assessment - Total Score, CFB (Change from baseline), Max” value [1, 2] was 0. The “COPD Assessment - Total Score, CFB (Change from baseline), Mean ± SD” value [1, 2] was −1.8 ± 1.50, the “COPD Assessment - Total Score, CFB (Change from baseline), Median” value [1, 2] was −2.0 and the “COPD Assessment - Total Score, CFB (Change from baseline), Min” value [1, 2] was −3. The “COPD Assessment - Total Score, CFB (Change from baseline), Q1” value [1, 2] was −3, the “COPD Assessment - Total Score, CFB (Change from baseline), Q3” value [1, 2] was −1 and the “COPD Assessment - Total Score, Observed, Max” value [1, 2] was 24. For the same compound, the “COPD Assessment - Total Score, Observed, Mean ± SD” value [1, 2] was 17.5 ± 8.27, the “COPD Assessment - Total Score, Observed, Median” value [1, 2] was 20.0 and the “COPD Assessment - Total Score, Observed, Min” value [1, 2] was 6. For the same compound, the “COPD Assessment - Total Score, Observed, Q1” value [1, 2] was 12, the “COPD Assessment - Total Score, Observed, Q3” value [1, 2] was 24 and the “COPD Assessment - Total Score, CFB (Change from baseline), Max” value [1, 3] was −8. For the same compound, the “COPD Assessment - Total Score, CFB (Change from baseline), Mean ± SD” value [1, 3] was −8.7 ± 1.15, the “COPD Assessment - Total Score, CFB (Change from baseline), Median” value [1, 3] was −8.0 and the “COPD Assessment - Total Score, CFB (Change from baseline), Min” value [1, 3] was −10. For the same compound, the “COPD Assessment - Total Score, CFB (Change from baseline), Q1” value [1, 3] was −10, the “COPD Assessment - Total Score, CFB (Change from baseline), Q3” value [1, 3] was −8 and the “COPD Assessment - Total Score, Observed, Max” value [1, 3] was 23. For the same compound, the “COPD Assessment - Total Score, Observed, Mean ± SD” value [1, 3] was 16.3 ± 5.86, the “COPD Assessment - Total Score, Observed, Median” value [1, 3] was 14.0 and the “COPD Assessment - Total Score, Observed, Min” value [1, 3] was 12. For the same compound, the “COPD Assessment - Total Score, Observed, Q1” value [1, 3] was 12 and the “COPD Assessment - Total Score, Observed, Q3” value [1, 3] was 23.
